Results reported in patent US20230192686A1, “1H-PYRROLO[2,3-B]PYRIDINES AND PREPARATION AND USES THEREOF” (BioSplice Therapeutics, Inc., priority 2021, published 2023).

Each compound was assayed against recombinant DYRK1A kinase (Homo sapiens, UniProt Q13627) (assay: DYRK1A kinase assay (Ser/Thr 18 peptide Z-lyte FRET)). Conditions: DYRK1A kinase activity; 15 μM ATP, 4 μM Ser/Thr peptide 18, one hour at room temperature.
Type: biochemical
Experimental: Representative compounds were screened using the assay procedure for DYRK1A kinase activity as described below.
Each compound was dissolved in DMSO as a 10 mM stock and used to prepare compound source plates. Serial dilution (1:3, 11-point dose-response curves from 10 μM to 0.00016 μM) and compound transfer was performed using the ECHO 550 (Labcyte, Sunnyvale, Calif.) into 1536-well black-walled round bottom plates (Corning).
The DYRK1A kinase assay was run using the Ser/Thr 18 peptide Z-lyte assay kit according to manufacturer's instructions (Life Technologies—a Division of Thermo-Fisher). This is a non-radioactive assay using fluorescence resonance energy transfer (FRET) between coumarin and fluorescein to detect kinase activity which is represented as a ratio of coumarin emission/fluorescein emission.
Briefly, recombinant DYRK1A kinase, ATP and Ser/Thr peptide 18 were prepared in 1× Kinase buffer to final concentrations of 0.25 μg/mL, 15 μM, and 4 μM respectively. The mixture was allowed to incubate with the representative compounds for one hour at room temperature. All reactions were performed in duplicate. Unphosphorylated (“0% Control”) and phosphorylated (“100% control”) forms of Ser/Thr 18 served as control reactions. Additionally, an 11-point dose-response curve of Staurosporine (1 uM top) was run to serve as a positive compound control.
After incubation, Development Reagent A was diluted in Development Buffer then added to the reaction and allowed to further incubate for one hour at room temperature. The plate was read at Ex 400 Em 455 to detect the coumarin signal and Ex 400 Em 520 to measure the signal (EnVision Multilabel Plate Reader, PerkinElmer).
The Emission ratio (Em) was calculated as a ratio of the coumarin (C) emission signal (at 445 nm)/Fluorescein (F) emission signal (at 520 nm). The percent phosphorylation was then calculated using the following formula: [1−((Em ratio×F100%)−C100%)/((C0%−C100%)+(Em ratio×(F100%−F0%)))]. Dose-response curves were generated, and inhibitory concentration (IC50) values were calculated using non-linear regression curve fit in the Dotmatics' Studies Software (Bishops Stortford, UK).
With `O=C(N[C@@H]1CCNC[C@H]1F)c1cnn2ccc(-c3c[nH]c4ncccc34)cc12` [Compound 43, N-((3R,4R)-3-Fluoropiperidin-4-yl)-5-(1H-pyrrolo[2,3-b]pyridin-3-yl) pyrazolo[1,5-a]pyridine-3-carboxamide] the EC50 was 1 nM. For `c1cnc2[nH]cc(-c3nc4cnccc4[nH]3)c2c1` [Compound 7, 2-(1H-Pyrrolo[2,3-b]pyridin-3-yl)-1H-imidazo[4,5-c]pyridine], the EC50 was 201 nM. With `Cc1nc2c(F)cc(-c3c[nH]c4ncc(N5CCN(C)CC5)cc34)cc2n1C(C)C` [Compound 367, 4-Fluoro-1-isopropyl-2-methyl-6-(5-(4-methylpiperazin-1-yl)-1H-pyrrolo[2,3-b]pyridin-3-yl)-1H-benzo[d]imidazole] the EC50 was 2 nM. In the case of `O=C(NC1CCN(C2CC2)CC1)c1cnn2ccc(-c3c[nH]c4ncccc34)cc12` [Compound 47, N-(1-Cyclopropylpiperidin-4-yl)-5-(1H-pyrrolo[2,3-b]pyridin-3-yl) pyrazolo[1,5-a]pyridine-3-carboxamide], the EC50 is reported as 2 nM. `Cc1nc2c(F)cc(-c3c[nH]c4ncc(-c5ccccc5)cc34)cc2n1C(C)C` [Compound 913, 4-Fluoro-1-isopropyl-2-methyl-6-(5-phenyl-1H-pyrrolo[2,3-b]pyridin-3-yl)-1H-benzo[d]imidazole] was tested, and the EC50 was 4 nM. In the case of `Cn1cc(-c2ccnc3[nH]cc(-c4ccc5ncccc5c4)c23)cn1` [Compound 186, 6-(4-(1-methyl-1H-pyrazol-4-yl)-1H-pyrrolo[2,3-b]pyridin-3-yl) quinoline], the EC50 is reported as 10 nM. Compound `c1cnc2[nH]cc(-c3ccc4ncnc(N5CCNC6(CC6)C5)c4c3)c2c1` [Compound 96, 6-(1H-Pyrrolo[2,3-b]pyridin-3-yl)-4-(4,7-diazaspiro[2.5]octan-7-yl) quinazoline] has an EC50 of 1 nM. `CN1CCC(NC(=O)c2cnc3[nH]cc(-c4ccc5ncncc5c4)c3c2)CC1` [Compound 482, N-(1-Methylpiperidin-4-yl)-3-(quinazolin-6-yl)-1H-pyrrolo[2,3-b] pyridine-5-carboxamide] was tested, and the EC50 was 15 nM. `c1cnc2[nH]cc(-c3ccnc4[nH]ccc34)c2c1` [Compound 2, 1H,1′H-3,4′-Bipyrrolo[2,3-b]pyridine] gave an EC50 of 50 nM. `CN1CCN(c2cc(-c3cnc4[nH]cc(-c5ccc6c(c5)C5(CCCCC5)NC6=O)c4c3)ccn2)CC1` [Compound 1398, 6′-(5-(2-(4-Methylpiperazin-1-yl)pyridin-4-yl)-1H-pyrrolo[2,3-b]pyridin-3-yl)spiro[cyclohexane-1,1′-isoindolin]-3′-one] showed an EC50 of 4 nM. `CC1(C)CNC(=O)c2ccc(-c3c[nH]c4ncccc34)cc21` [Compound 82, 4,4-Dimethyl-6-(1H-pyrrolo[2,3-b]pyridin-3-yl)-3,4-dihydroisoquinolin-1(2H)-one] gave an EC50 of 6 nM. For `Cc1nc2c(F)cc(-c3c[nH]c4ncc(C(=O)N5CC6CCC(C5)N6C)cc34)cc2n1C(C)C` [Compound 2044, (3-(4-Fluoro-1-isopropyl-2-methyl-1H-benzo[d]imidazol-6-yl)-1H-pyrrolo[2,3-b]pyridin-5-yl)(8-methyl-3,8-diazabicyclo[3.2.1]octan-3-yl)methanone], the EC50 was 3 nM. `c1cnc2[nH]cc(-c3ccc4nccn4c3)c2c1` [Compound 12, 6-(1H-Pyrrolo[2,3-b]pyridin-3-yl)imidazo[1,2-a]pyridine] gave an EC50 of 3 nM. `COc1ncnc2ccc(-c3c[nH]c4ncc(-c5cccnc5)cc34)cc12` [Compound 1197, 4-Methoxy-6-(5-(pyridin-3-yl)-1H-pyrrolo[2,3-b]pyridin-3-yl) quinazoline] was tested, and the EC50 was 3 nM. Work on `c1cnc2[nH]cc(-c3cn4ccnc4cn3)c2c1` [Compound 20, 6-(1H-Pyrrolo[2,3-b]pyridin-3-yl)imidazo[1,2-a]pyrazine] yielded an EC50 of 10 nM. `c1cnc2ccc(-c3c[nH]c4ncccc34)cc2c1` [Compound 87, 6-(1H-Pyrrolo[2,3-b]pyridin-3-yl)quinoline] gave an EC50 of 2 nM. In the case of `O=C(c1cnn2ccc(-c3c[nH]c4ncccc34)cc12)N1CCN(C2CC2)CC1` [Compound 56, (5-(1H-Pyrrolo[2,3-b]pyridin-3-yl)pyrazolo[1,5-a]pyridin-3-yl)(4-cyclopropylpiperazin-1-yl)methanone], the EC50 is reported as 7 nM. `O=C1CC2(CCNCC2)Oc2cc(-c3c[nH]c4ncc(-c5cccnc5)cc34)ccc21` [Compound 1192, 7-(5-(Pyridin-3-yl)-1H-pyrrolo[2,3-b]pyridin-3-yl)spiro[chromane-2,4′-piperidin]-4-one] gave an EC50 of 10 nM. `CN1CCN(c2cccc(Nc3ccc4c(-c5ccc6ncccc6c5)c[nH]c4n3)c2)CC1` [Compound 1950, N-(3-(4-Methylpiperazin-1-yl)phenyl)-3-(quinolin-6-yl)-1H-pyrrolo [2,3-b]pyridin-6-amine] was tested, and the EC50 was 38 nM. With `Cc1nn(C)c(C)c1-c1cnc2[nH]cc(-c3cc(F)c4nc(C)n(C(C)C)c4c3)c2c1` [Compound 1081, 4-Fluoro-1-isopropyl-2-methyl-6-(5-(1,3,5-trimethyl-1H-pyrazol-4-yl)-1H-pyrrolo[2,3-b]pyridin-3-yl)-1H-benzo[d]imidazole] the EC50 was 2 nM. `Cc1nc2c(F)cc(-c3c[nH]c4ncc(C(=O)N5CCN(C)CC5)cc34)cc2n1C(C)C` [Compound 493, (3-(4-Fluoro-1-isopropyl-2-methyl-1H-benzo[d]imidazol-6-yl)-1H-pyrrolo[2,3-b]pyridin-5-yl)(4-methylpiperazin-1-yl)methanone] showed an EC50 of 7 nM. `Cc1ccnc(C)c1-c1cnc2[nH]cc(-c3cc(F)c4nc(C)n(C(C)C)c4c3)c2c1` [Compound 1291, 6-(5-(2,4-Dimethylpyridin-3-yl)-1H-pyrrolo[2,3-b]pyridin-3-yl)-4-fluoro-1-isopropyl-2-methyl-1H-benzo[d]imidazole] was tested, and the EC50 was 7 nM. With `c1cnc2ccc(-c3c[nH]c4nccc(NCc5ccc(-n6ccnc6)nc5)c34)cc2c1` [Compound 2052, N-((6-(1H-Imidazol-1-yl)pyridin-3-yl)methyl)-3-(quinolin-6-yl)-1H-pyrrolo[2,3-b]pyridin-4-amine] the EC50 was 34 nM. Compound `c1cn2cc(-c3c[nH]c4nc(C5CC5)ccc34)cnc2n1` [Compound 1500, 6-(6-Cyclopropyl-1H-pyrrolo[2,3-b]pyridin-3-yl)imidazo[1,2-a] pyrimidine] has an EC50 of 5 nM. Compound `CN1CCN(C(=O)c2cnn3ccc(-c4c[nH]c5ncc(-c6cnn(C)c6)cc45)cc23)CC1` [Compound 1055, (5-(5-(1-Methyl-1H-pyrazol-4-yl)-1H-pyrrolo[2,3-b]pyridin-3-yl)pyrazolo[1,5-a]pyridin-3-yl)(4-methylpiperazin-1-yl)methanone] has an EC50 of 9 nM. In the case of `COc1ccc(Nc2ncnc3ccc(-c4c[nH]c5ncccc45)cc23)cn1` [Compound 101, N-(6-Methoxypyridin-3-yl)-6-(1H-pyrrolo[2,3-b]pyridin-3-yl) quinazolin-4-amine], the EC50 is reported as 6 nM. `O=C1CC2(CCNCC2)Oc2cc(-c3c[nH]c4ncc(Cl)cc34)ccc21` [Compound 226, 7-(5-Chloro-1H-pyrrolo[2,3-b]pyridin-3-yl)spiro[chromane-2,4′-piperidin]-4-one] was tested, and the EC50 was 36 nM. Compound `COc1ccnc2[nH]cc(-c3ccn4ncc(C(=O)NC5CCN(C)CC5)c4c3)c12` [Compound 128, 5-(4-Methoxy-1H-pyrrolo[2,3-b]pyridin-3-yl)-N-(1-methylpiperidin-4-yl)pyrazolo[1,5-a]pyridine-3-carboxamide] has an EC50 of 1 nM. Work on `Cc1cn2c(n1)CN(C(=O)c1cnc3[nH]cc(-c4cc5n(c4)CCNC5=O)c3c1)CC2` [Compound 573, 7-(5-(2-Methyl-5,6,7,8-tetrahydroimidazo[1,2-a]pyrazine-7-carbonyl)-1H-pyrrolo[2,3-b]pyridin-3-yl)-3,4-dihydropyrrolo[1,2-a]pyrazin-1(2H)-one] yielded an EC50 of 10 nM. `CN1CCN(Cc2cnc3[nH]cc(-c4ccc5nccnc5c4)c3c2)CC1` [Compound 439, 6-(5-((4-Methylpiperazin-1-yl)methyl)-1H-pyrrolo[2,3-b]pyridin-3-yl) quinoxaline] showed an EC50 of 16 nM. `CN1CCC(Oc2ccc(Nc3ncnc4ccc(-c5c[nH]c6ncccc56)cc34)cn2)CC1` [Compound 102, N-(6-((1-Methylpiperidin-4-yl)oxy)pyridin-3-yl)-6-(1H-pyrrolo[2,3-b]pyridin-3-yl)quinazolin-4-amine] showed an EC50 of 2 nM. For `Cn1nnc2ccc(-c3c[nH]c4nc(C5CC5)ccc34)cc21` [Compound 1507, 6-(6-Cyclopropyl-1H-pyrrolo[2,3-b]pyridin-3-yl)-1-methyl-1H-benzo[d][1,2,3]triazole], the EC50 was 38 nM. With `Cc1nc2c(F)cc(-c3c[nH]c4nc(-c5cnn(C)c5)ccc34)cc2n1C(C)C` [Compound 1963, 4-Fluoro-1-isopropyl-2-methyl-6-(6-(1-methyl-1H-pyrazol-4-yl)-1H-pyrrolo[2,3-b]pyridin-3-yl)-1H-benzo[d]imidazole] the EC50 was 45 nM.
